Source: US20080292584A1 (priority 2005, published 2008)
Values joined by “and” are separate entries in the source; they are usually repeats but may differ in a detail not shown here. Equal values may be shown once.

How the values were obtained:
CYP2A6 [1] = assay: Chemical inhibition of metaxalone turnover in human liver microsomes, CYP2A6 inhibitor pilocarpine; conditions: 1 mg/mL HLM, 60 min, with pilocarpine; for % Turnover / % inhibition of turnover / Conc.: single replicates
Method: (§1) Human liver microsomes pooled from 15 individuals (male and female) (Pool HMMC-PL020; CellzDirect, Inc., In Vitro Products and Services Division) were used in some experiments of this study.
(§2) % Turnover=100−{[TA(final)]/[mean of TA(0 min)]}×100,
(§3) % Inhibition of Turnover=100{1−([TA(0 min)]−[TA(final-inhibitor)])/([TA(0 min)]−[TA(final-no inhibitor)])}.
(§4) The inhibitors or vehicle control were incubated with the pooled human liver microsomes (1 mg/mL) and NADPH (1 mM) in 0.1 M phosphate buffer, pH 7.4. […] Incubations were conducted in triplicate and terminated by addition of organic solvent. Samples were extracted and analyzed by LC-MS/MS as described above.

[2] = Metaxalone turnover in pooled human liver microsomes without inhibitor (LC-MS/MS); conditions: for % Turnover Mean / Mean Conc. / % Turnover / Conc. / Mean metaxalone disappearance: 1 mg/mL microsomal protein; for % Turnover Mean / Mean Conc. / % Turnover / Conc.: 60 min, no inhibitor; for % Turnover / Conc.: single replicates
Method: Stocks were diluted daily in the appropriate buffers such that the final organic solvent concentration was <1%.
The reactions, in 0.1 M phosphate buffer, pH 7.4, were initiated by addition of 1 mM NADPH. Negative controls (no NADPH and heat-treated microsomes) were included to account for any non-enzymatic or non-NADPH dependent reactions. The reactions were terminated at the appropriate time points by addition of 1 volume (relative to total reaction volume) of methanol. The samples were centrifuged at approximately 3000 rpm and the clear supernatant was transferred to a clean tube and analyzed by the LC-MS/MS method described above.

CYP2D6 = CYP2D6 (Homo sapiens, UniProt P10635); assay: Inhibition of CYP2D6 activity in pooled human liver microsomes (dextromethorphan 5 μM to dextrorphan); format: in vitro ADME
Method: All other incubations were for 30 minutes.
Four replicates were performed.
Two replicates were performed.

CYP2A6 [3] = assay: Induction/inhibition of CYP2A6 activity in cryopreserved human hepatocytes (coumarin); format: in vitro ADME
Description: Hepatocytes from three human donors were obtained from a cryopreserved hepatocyte bank (In Vitro Technologies, Inc., USA). After thawing, viable hepatocytes were transferred to collagen-coated 48-well plates for attachment in plating medium (DMEM stock (Dulbecco's modified Eagle's medium, supplemented with bovine serum albumin, fructose, N-(2-hydroxyethyl)piperazine-N′-(2-ethanesulfonate) (HEPES), and sodium bicarbonate), supplemented with antibiotics, bovine serum, hydrocortisone, insulin and minimum essential medium (MEM) nonessential amino acids). After attachment to the collagen matrix, plating medium was replaced with sandwich medium (plating medium supplemented with VITROGEN) and incubated until use.
The supplemented KHB was replaced with 150 μL supplemented KHB containing the appropriate isoform-selective substrate and incubated for 4 hrs prior to termination by adding 150 μL ice-cold methanol, except for the CYP2C8 incubations which were terminated by adding 150 μL acetonitrile.
All substrates were dissolved in acetonitrile.
Replicate trials and controls were performed. […] Additionally, reference control samples were included to evaluate inducibility of CYP2B6, CYP2C9, and CYP2C19 in the test system.
Mean specific activity values with associated p-values≦0.05 were deemed to be statistically significant.

CYP2C19 = CYP2C19 (Homo sapiens, UniProt P33261); assay: Chemical inhibition of metaxalone turnover in human liver microsomes, CYP2C19 inhibitor ticlopidine; conditions: 1 mg/mL HLM, 60 min, with ticlopidine; for % Turnover / % inhibition of turnover / Conc.: single replicates
Chain of CYP2C19 (P33261 whole entry): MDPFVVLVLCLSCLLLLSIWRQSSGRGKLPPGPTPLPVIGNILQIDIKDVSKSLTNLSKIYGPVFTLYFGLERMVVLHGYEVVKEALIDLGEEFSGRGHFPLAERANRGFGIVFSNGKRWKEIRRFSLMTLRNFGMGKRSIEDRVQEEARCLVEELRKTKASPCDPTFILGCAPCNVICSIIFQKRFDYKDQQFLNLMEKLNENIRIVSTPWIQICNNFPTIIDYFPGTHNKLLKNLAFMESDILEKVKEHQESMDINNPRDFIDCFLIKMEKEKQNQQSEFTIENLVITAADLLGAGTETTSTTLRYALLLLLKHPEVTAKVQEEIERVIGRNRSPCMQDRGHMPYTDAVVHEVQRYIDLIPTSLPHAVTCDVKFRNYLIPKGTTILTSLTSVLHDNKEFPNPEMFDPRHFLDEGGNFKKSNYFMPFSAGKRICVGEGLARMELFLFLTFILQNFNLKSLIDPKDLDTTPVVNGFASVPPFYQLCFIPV
Method: as §1, §2, §3, §4

Chain of CYP2D6 (P10635 whole entry): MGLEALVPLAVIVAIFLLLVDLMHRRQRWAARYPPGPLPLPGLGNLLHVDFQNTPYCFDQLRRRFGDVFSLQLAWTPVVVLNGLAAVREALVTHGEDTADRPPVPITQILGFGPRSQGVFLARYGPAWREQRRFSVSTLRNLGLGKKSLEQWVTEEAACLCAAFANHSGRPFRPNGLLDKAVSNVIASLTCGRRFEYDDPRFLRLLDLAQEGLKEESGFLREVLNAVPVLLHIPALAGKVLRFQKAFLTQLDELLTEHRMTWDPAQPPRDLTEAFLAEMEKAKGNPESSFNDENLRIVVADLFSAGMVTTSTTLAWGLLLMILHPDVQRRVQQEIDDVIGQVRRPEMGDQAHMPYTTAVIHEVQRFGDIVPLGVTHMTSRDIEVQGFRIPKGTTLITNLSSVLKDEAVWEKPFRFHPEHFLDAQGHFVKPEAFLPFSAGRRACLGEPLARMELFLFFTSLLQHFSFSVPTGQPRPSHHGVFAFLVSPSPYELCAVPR

In the case of `Cc1cc(C)cc(OCC2CNC(=O)O2)c1` (stereo not drawn) [metaxalone, 5-[(3,5-dimethylphenoxy)methyl]-2-oxazolidinone], the “% Turnover Mean” value (CYP2A6 [1]; 0.75 μM metaxalone) is reported as 16.0%, the “% inhibition of turnover Mean” value (CYP2A6 [1]; 0.75 μM metaxalone) is reported as 46.2% and the “Mean Conc.” value (CYP2A6 [1]; 0.75 μM metaxalone) is reported as 0.648 µM. The “% Turnover” value (CYP2A6 [1]; 0.75 μM metaxalone) was 13.9% and 14.7% and 19.4%, the “% inhibition of turnover” value (CYP2A6 [1]; 0.75 μM metaxalone) was 53.2% and 50.6% and 34.9% and the “Conc.” value (CYP2A6 [1]; 0.75 μM metaxalone) was 0.664 µM and 0.658 µM and 0.622 µM. The “% Turnover Mean” value (CYP2A6 [1]; 7.5 μM metaxalone) was 12.1%, the “% inhibition of turnover Mean” value (CYP2A6 [1]; 7.5 μM metaxalone) was 50.8% and the “Mean Conc.” value (CYP2A6 [1]; 7.5 μM metaxalone) was 7.48 µM. For the same molecule, the “% Turnover” value (CYP2A6 [1]; 7.5 μM metaxalone) was 8.8% and 14.5% and 13.0%, the “% inhibition of turnover” value (CYP2A6 [1]; 7.5 μM metaxalone) was 64.2% and 41.2% and 47.1% and the “Conc.” value (CYP2A6 [1]; 7.5 μM metaxalone) was 7.76 µM and 7.28 µM and 7.41 µM. For the same molecule, the “% Turnover Mean” value ([2]; 0.75 μM metaxalone) was 29.8%, the “Mean Conc.” value ([2]; 0.75 μM metaxalone) was 0.542 µM and the “% Turnover” value ([2]; 0.75 μM metaxalone) was 30.5% and 27.3% and 31.5%. For the same molecule, the “Conc.” value ([2]; 0.75 μM metaxalone) was 0.536 µM and 0.561 µM and 0.529 µM, the Mean metaxalone disappearance ([2]; 0.75 μM metaxalone, 60 minutes) was 29.8±1.3% and the “% Turnover Mean” value ([2]; 7.5 μM metaxalone) was 24.6%. The “Mean Conc.” value ([2]; 7.5 μM metaxalone) was 6.42 µM, the “% Turnover” value ([2]; 7.5 μM metaxalone) was 24.8% and 23.9% and 25.1% and the “Conc.” value ([2]; 7.5 μM metaxalone) was 6.40 µM and 6.48 µM and 6.38 µM. For the same molecule, the Mean metaxalone disappearance ([2]; 7.5 μM metaxalone, 60 minutes) was 24.6±0.3%, the maximum turnover ([2]; 60 minutes, 1 mg/mL protein, NADPH-dependent) was 38.0% and the “inhibition of CYP activity at a statistically significant level” value (CYP2D6; 0.3-100 μM metaxalone, p≦0.05) was “inhibited”. The Inhibitor (CYP2D6; CYP isozyme 2D6, summary of studies) was “+”, the “Percent of VC” value (CYP2D6; metaxalone 0.3 μM) was 81.3% and the “Specific Activity Individual” value (CYP2D6; metaxalone 0.3 μM) was 39.5 pmol/min/mg protein and 39.2 pmol/min/mg protein and 40.5 pmol/min/mg protein. For the same molecule, the “Specific Activity Mean ± SD” value (CYP2D6; metaxalone 0.3 μM) was 39.8 ± 0.688 pmol/min/mg protein, the “Percent of VC” value (CYP2D6; metaxalone 1 μM) was 84.2% and the “Specific Activity Individual” value (CYP2D6; metaxalone 1 μM) was 42.4 pmol/min/mg protein and 41.3 pmol/min/mg protein. For the same molecule, the “Specific Activity Mean ± SD” value (CYP2D6; metaxalone 1 μM) was 41.2 ± 1.28 pmol/min/mg protein, the “Percent of VC” value (CYP2D6; metaxalone 3 μM) was 89.3% and the “Specific Activity Individual” value (CYP2D6; metaxalone 3 μM) was 43.0 pmol/min/mg protein and 44.8 pmol/min/mg protein. For the same molecule, the “Specific Activity Mean ± SD” value (CYP2D6; metaxalone 3 μM) was 43.7 ± 0.940 pmol/min/mg protein, the “Percent of VC” value (CYP2D6; metaxalone 30 μM) was 85.1% and the “Specific Activity Individual” value (CYP2D6; metaxalone 30 μM) was 41.4 pmol/min/mg protein and 42.6 pmol/min/mg protein and 40.9 pmol/min/mg protein. The “Specific Activity Mean ± SD” value (CYP2D6; metaxalone 30 μM) was 41.6 ± 0.893 pmol/min/mg protein, the “Percent of VC” value (CYP2D6; metaxalone 100 μM) was 85.9% and the “Specific Activity Individual” value (CYP2D6; metaxalone 100 μM) was 42.6 pmol/min/mg protein and 41.3 pmol/min/mg protein and 42.2 pmol/min/mg protein. For the same molecule, the “Specific Activity Mean ± SD” value (CYP2D6; metaxalone 100 μM) was 42.0 ± 0.680 pmol/min/mg protein, the Inducer/Inhibitor (CYP2A6 [3]; CYP isozyme 2A6, summary of studies) was 0 and the “Percent of VC” value (CYP2A6 [3]; Donor 1, Metaxalone 0.4 μM) was 100%. For the same molecule, the “Specific Activity Individual” value (CYP2A6 [3]; Donor 1, Metaxalone 0.4 μM) was less than 2.68 pmol/min/million cells, the “Specific Activity Mean ± SD” value (CYP2A6 [3]; Donor 1, Metaxalone 0.4 μM) was less than 2.68 ± 0.000 pmol/min/million cells and the “Percent of VC” value (CYP2A6 [3]; Donor 1, Metaxalone 4 μM) was 100%. The “Specific Activity Individual” value (CYP2A6 [3]; Donor 1, Metaxalone 4 μM) was less than 2.68 pmol/min/million cells, the “Specific Activity Mean ± SD” value (CYP2A6 [3]; Donor 1, Metaxalone 4 μM) was less than 2.68 ± 0.000 pmol/min/million cells and the “Percent of VC” value (CYP2A6 [3]; Donor 1, Metaxalone 40 μM) was 100%. The “Specific Activity Individual” value (CYP2A6 [3]; Donor 1, Metaxalone 40 μM) was less than 2.68 pmol/min/million cells, the “Specific Activity Mean ± SD” value (CYP2A6 [3]; Donor 1, Metaxalone 40 μM) was less than 2.68 ± 0.000 pmol/min/million cells and the “Percent of VC” value (CYP2A6 [3]; Donor 2, Metaxalone 0.4 μM) was 100%. The “Specific Activity Individual” value (CYP2A6 [3]; Donor 2, Metaxalone 0.4 μM) was less than 2.68 pmol/min/million cells, the “Specific Activity Mean ± SD” value (CYP2A6 [3]; Donor 2, Metaxalone 0.4 μM) was less than 2.68 ± 0.000 pmol/min/million cells and the “Percent of VC” value (CYP2A6 [3]; Donor 2, Metaxalone 4 μM) was 100%. For the same molecule, the “Specific Activity Individual” value (CYP2A6 [3]; Donor 2, Metaxalone 4 μM) was less than 2.68 pmol/min/million cells, the “Specific Activity Mean ± SD” value (CYP2A6 [3]; Donor 2, Metaxalone 4 μM) was less than 2.68 ± 0.000 pmol/min/million cells and the “Percent of VC” value (CYP2A6 [3]; Donor 2, Metaxalone 40 μM) was 100%. For the same molecule, the “Specific Activity Individual” value (CYP2A6 [3]; Donor 2, Metaxalone 40 μM) was less than 2.68 pmol/min/million cells, the “Specific Activity Mean ± SD” value (CYP2A6 [3]; Donor 2, Metaxalone 40 μM) was less than 2.68 ± 0.000 pmol/min/million cells and the “Percent of VC” value (CYP2A6 [3]; Donor 3, Metaxalone 0.4 μM) was 100%. The “Specific Activity Individual” value (CYP2A6 [3]; Donor 3, Metaxalone 0.4 μM) was less than 2.68 pmol/min/million cells, the “Specific Activity Mean ± SD” value (CYP2A6 [3]; Donor 3, Metaxalone 0.4 μM) was less than 2.68 ± 0.000 pmol/min/million cells and the “Percent of VC” value (CYP2A6 [3]; Donor 3, Metaxalone 4 μM) was 100%. The “Specific Activity Individual” value (CYP2A6 [3]; Donor 3, Metaxalone 4 μM) was less than 2.68 pmol/min/million cells, the “Specific Activity Mean ± SD” value (CYP2A6 [3]; Donor 3, Metaxalone 4 μM) was less than 2.68 ± 0.000 pmol/min/million cells and the “Percent of VC” value (CYP2A6 [3]; Donor 3, Metaxalone 40 μM) was 100%. The “Specific Activity Individual” value (CYP2A6 [3]; Donor 3, Metaxalone 40 μM) was less than 2.68 pmol/min/million cells, the “Specific Activity Mean ± SD” value (CYP2A6 [3]; Donor 3, Metaxalone 40 μM) was less than 2.68 ± 0.000 pmol/min/million cells and the “effects on CYP activity” value (CYP2A6 [3]; any of the tested concentrations (0.4, 4.0, 40 μM)) was “no significant effects”. The “% Turnover Mean” value (CYP2C19; 0.75 μM metaxalone) was 8.16%, the “% inhibition of turnover Mean” value (CYP2C19; 0.75 μM metaxalone) was 72.6% and the “Mean Conc.” value (CYP2C19; 0.75 μM metaxalone) was 0.709 µM. The “% Turnover” value (CYP2C19; 0.75 μM metaxalone) was 9.6% and 7.5% and 7.4%, the “% inhibition of turnover” value (CYP2C19; 0.75 μM metaxalone) was 67.9% and 74.7% and 75.2% and the “Conc.” value (CYP2C19; 0.75 μM metaxalone) was 0.698 µM and 0.714 µM and 0.715 µM. The “% Turnover Mean” value (CYP2C19; 7.5 μM metaxalone) was 1.71%, the “% inhibition of turnover Mean” value (CYP2C19; 7.5 μM metaxalone) was 93.1% and the “Mean Conc.” value (CYP2C19; 7.5 μM metaxalone) was 8.37 µM. The “% Turnover” value (CYP2C19; 7.5 μM metaxalone) was 5.8% and 11.0% and −11.6%, the “% inhibition of turnover” value (CYP2C19; 7.5 μM metaxalone) was 76.5% and 55.5% and 147% and the “Conc.” value (CYP2C19; 7.5 μM metaxalone) was 8.02 µM and 7.58 µM and 9.50 µM.
